# Assay results taken from patent US20240287138A1, “CYCLIC PEPTIDES FOR INHIBITING TNF RECEPTOR 1 ACTIVITY” (Merck Sharp & Dohme LLC, priority 2023, published 2024).
# Numbered stars: 1 amine (or outer) side, 2 acyl side, 3 side chain; on linkers, the order of the positions; unused ones are H or OH. Bridge positions count the residues as written; N and C are the ends. Square brackets hold non-standard residues; d marks the D form. Peptide text beside a SMILES is read from it. Trp(βS-Me,7-OMe) = COc1cccc2c([C@H](C)[C@H](N)C(=O)O)c[nH]c12; Trp(1-CH2COOH) = N[C@@H](Cc1cn(CC(=O)O)c2ccccc12)C(=O)O; Phe(4-SO2NH2) = N[C@@H](Cc1ccc(S(N)(=O)=O)cc1)C(=O)O; Phe(2-F,4-COOH) = N[C@@H](Cc1ccc(C(=O)O)cc1F)C(=O)O; dPro(trans-4-NMe2) = CN(C)[C@@H]1CN[C@@H](C(=O)O)C1; Trp(7-CN) = N#Cc1cccc2c(C[C@H](N)C(=O)O)c[nH]c12; Trp(7-Cl) = N[C@@H](Cc1c[nH]c2c(Cl)cccc12)C(=O)O; Phe(3-CONH2) = NC(=O)c1cccc(C[C@H](N)C(=O)O)c1; Phe(4-CONH2) = NC(=O)c1ccc(C[C@H](N)C(=O)O)cc1; Phe(4-COOH) = N[C@@H](Cc1ccc(C(=O)O)cc1)C(=O)O; 4Pal(3S-Me) = C[C@@H](c1ccncc1)[C@H](N)C(=O)O; Trp(7-aza) = N[C@@H](Cc1c[nH]c2ncccc12)C(=O)O; dPro(trans-4-F) = O=C(O)[C@H]1C[C@H](F)CN1; Pip(5R-OH) = O=C(O)[C@@H]1CC[C@@H](O)CN1; X1 = O=C([C@@H]1CC[C@H](N[*:1])C1)[*:2]; Met(O2) = CS(=O)(=O)CC[C@H](N)C(=O)O; NMeT = CN[C@H](C(=O)O)[C@@H](C)O; 4Pal = N[C@@H](Cc1ccncc1)C(=O)O; NMeE = CN[C@@H](CCC(=O)O)C(=O)O; dHyp = O=C(O)[C@H]1C[C@H](O)CN1; Ahp(2) = CCCCC[C@H](N)C(=O)O; NEtAla = CCN[C@@H](C)C(=O)O; αMeS = C[C@](N)(CO)C(=O)O; Nle = CCCC[C@H](N)C(=O)O; Sar = CNCC(=O)O
# Molecular target: T1, human soluble TNFR1 (sTNFR1) (Homo sapiens, UniProt P19438)
# T1 construct: made in house; host or cells: Sf21 (baculovirus)
# T1 sequence (P19438 with tags, fused parts or gaps): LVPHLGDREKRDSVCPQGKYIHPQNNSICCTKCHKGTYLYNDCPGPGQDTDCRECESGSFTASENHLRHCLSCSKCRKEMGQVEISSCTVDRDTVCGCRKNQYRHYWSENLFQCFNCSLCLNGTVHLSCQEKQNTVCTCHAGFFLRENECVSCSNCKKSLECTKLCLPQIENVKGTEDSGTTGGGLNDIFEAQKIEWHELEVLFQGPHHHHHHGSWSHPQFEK
# Experiment: Human sTNFR1-peptide displacement assay (LanthaScreen Eu TR-FRET binding assay)
# How it was run: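 Readout is the 665/615 nm TR-FRET ratio (Eu anti-His donor, streptavidin-Alexa647 acceptor), normalized to DMSO and saturating displacer, fit by Morrison-based five-parameter logistic for Kd^app. His-tagged sTNFR1 (1-211) prebound to 100 nM biotinylated peptide SEQ ID NO.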
row,SMILES,Kd [nM]
1,"CCCC[C@@H]1NC(=O)[C@@H]2CC[C@@H](C2)NC(=O)[C@H]([C@@H](C)c2c[nH]c3c(OC)cccc23)NC(=O)CN(C)C(=O)[C@H](Cc2ccc(C(N)=O)cc2)NC(=O)[C@H](Cc2ccc(S(N)(=O)=O)cc2)NC(=O)[C@](C)(CO)NC(=O)[C@H](Cc2c[nH]c3c(C#N)cccc23)NC(=O)[C@H](Cc2ccc(C(=O)O)cc2)NC(=O)[C@H](CC(N)=O)NC(=O)[C@H]2C[C@H](N(C)C)CN2C(=O)[C@H](Cc2cn(CC(=O)O)c3ccccc23)NC(=O)[C@@H]2CC[C@@H](O)CN2C(=O)[C@H](Cc2ccncc2)NC1=O [SEQ ID NO. 2] (cyclo([4Pal][Pip(5R-OH)][Trp(1-CH2COOH)][dPro(trans-4-NMe2)]N[Phe(4-COOH)][Trp(7-CN)][αMeS][Phe(4-SO2NH2)][Phe(4-CONH2)][Sar][Trp(βS-Me,7-OMe)][X1][Nle]))",0.07
2,"CCCC[C@@H]1NC(=O)[C@@H]2CC[C@@H](C2)NC(=O)[C@H]([C@@H](C)c2c[nH]c3c(OC)cccc23)NC(=O)CN(C)C(=O)[C@H](Cc2cccc(C(N)=O)c2)NC(=O)[C@H](Cc2ccc(C(N)=O)cc2)NC(=O)[C@](C)(CO)NC(=O)[C@H](Cc2c[nH]c3c(C#N)cccc23)NC(=O)[C@H](Cc2ccc(C(=O)O)cc2)NC(=O)[C@H](CC(N)=O)NC(=O)[C@H]2C[C@H](F)CN2C(=O)[C@H](Cc2c[nH]c3ccccc23)NC(=O)[C@@H]2CC[C@@H](O)CN2C(=O)[C@H](Cc2ccncc2)NC1=O [SEQ ID NO. 21] (cyclo([4Pal][Pip(5R-OH)]W[dPro(trans-4-F)]N[Phe(4-COOH)][Trp(7-CN)][αMeS][Phe(4-CONH2)][Phe(3-CONH2)][Sar][Trp(βS-Me,7-OMe)][X1][Nle]))",0.04
3,"CCCC[C@@H]1NC(=O)CSC[C@@H](C(N)=O)NC(=O)[C@H]([C@@H](C)c2c[nH]c3c(OC)cccc23)NC(=O)CN(C)C(=O)[C@H](Cc2ccc(O)cc2)NC(=O)[C@H](Cc2ccc(C(=O)O)cc2)NC(=O)[C@](C)(CO)NC(=O)[C@H](Cc2c[nH]c3c(Cl)cccc23)NC(=O)[C@H](Cc2ccncc2)NC(=O)[C@H](CC(N)=O)NC(=O)[C@H](CCC(=O)O)N(C)C(=O)[C@H](Cc2c[nH]c3ncccc23)NC(=O)[C@H]([C@@H](C)O)N(C)C(=O)[C@H](Cc2ccncc2)NC1=O [SEQ ID NO. 29] ({CH2CO}-[Nle][4Pal][NMeT][Trp(7-aza)][NMeE]N[4Pal][Trp(7-Cl)][αMeS][Phe(4-COOH)]Y[Sar][Trp(βS-Me,7-OMe)]C-NH2; thioether N-14)",0.65
4,"CCCC[C@@H]1NC(=O)CSC[C@@H](C(N)=O)NC(=O)[C@H]([C@@H](C)c2c[nH]c3c(OC)cccc23)NC(=O)CN(C)C(=O)[C@H](Cc2ccc(O)cc2)NC(=O)[C@H](Cc2ccc(C(=O)O)cc2)NC(=O)[C@](C)(CO)NC(=O)[C@H](Cc2c[nH]c3c(Cl)cccc23)NC(=O)[C@H](Cc2ccncc2)NC(=O)[C@H](CC(N)=O)NC(=O)[C@H](CCC(=O)O)N(C)C(=O)[C@H](Cc2c[nH]c3ncccc23)NC(=O)[C@H](C)N(CC)C(=O)[C@H](Cc2ccncc2)NC1=O [SEQ ID NO. 38] ({CH2CO}-[Nle][4Pal][NEtAla][Trp(7-aza)][NMeE]N[4Pal][Trp(7-Cl)][αMeS][Phe(4-COOH)]Y[Sar][Trp(βS-Me,7-OMe)]C-NH2; thioether N-14)",0.7
5,"CCCC[C@@H]1NC(=O)[C@@H]2CC[C@@H](C2)NC(=O)[C@H]([C@@H](C)c2c[nH]c3c(OC)cccc23)NC(=O)CN(C)C(=O)[C@H](Cc2ccc(C(=O)O)cc2F)NC(=O)[C@H](Cc2ccc(C(N)=O)cc2)NC(=O)[C@](C)(CO)NC(=O)[C@H](Cc2c[nH]c3c(Cl)cccc23)NC(=O)[C@H](Cc2ccc(C(=O)O)cc2F)NC(=O)[C@H](CC(N)=O)NC(=O)[C@H]2C[C@H](O)CN2C(=O)[C@H](Cc2c[nH]c3ccccc23)NC(=O)[C@@H]2CC[C@@H](O)CN2C(=O)[C@H](Cc2ccncc2)NC1=O [SEQ ID NO. 41] (cyclo([4Pal][Pip(5R-OH)]W[dHyp]N[Phe(2-F,4-COOH)][Trp(7-Cl)][αMeS][Phe(4-CONH2)][Phe(2-F,4-COOH)][Sar][Trp(βS-Me,7-OMe)][X1][Nle]))",0.07
6,"CCCCC[C@@H]1NC(=O)[C@@H]2CC[C@@H](C2)NC(=O)[C@H]([C@@H](C)c2c[nH]c3c(OC)cccc23)NC(=O)CN(C)C(=O)[C@H](Cc2ccc(C(N)=O)cc2)NC(=O)[C@H](Cc2ccc(C(N)=O)cc2)NC(=O)[C@](C)(CO)NC(=O)[C@H](Cc2c[nH]c3c(C#N)cccc23)NC(=O)[C@H](Cc2ccc(C(=O)O)cc2)NC(=O)[C@H](CC(N)=O)NC(=O)[C@H]2C[C@H](O)CN2C(=O)[C@H](Cc2c[nH]c3ccccc23)NC(=O)[C@H](CCS(C)(=O)=O)NC(=O)[C@H]([C@@H](C)c2ccncc2)NC1=O [SEQ ID NO. 49] (cyclo([Ahp(2)][4Pal(3S-Me)][Met(O2)]W[dHyp]N[Phe(4-COOH)][Trp(7-CN)][αMeS][Phe(4-CONH2)][Phe(4-CONH2)][Sar][Trp(βS-Me,7-OMe)][X1]))",0.2
